Where a name gives a salt, the structure may show the parent alone.

The series in a line: in vitro. The note with it: human, hek293t cells.
The viability is a read-out of living cells in per cent, often relative to untreated cells. In the case of `N#CC(C(=O)Nc1ccc(Cl)cc1)=C(S)Nc1ccccc1` [8-H22, N-(4-chlorophenyl)-2-cyano-3-(phenylamino)-3-sulfanylprop-2-enamide], the viability at 48 h, 25 µM worked out at 78.8%. For `N#CC(=Cc1ccc(C#N)cc1)C(=O)Nc1ccc(F)c(Cl)c1` [9-A22, N-(3-chloro-4-fluorophenyl)-2-cyano-3-(4-cyanophenyl)prop-2-enamide] the value was 102%. For `N#CC(=Cc1cccc(F)c1)C(=O)Nc1cc(Cl)ccc1Cl` [9-P03, 2-cyano-N-(2,5-dichlorophenyl)-3-(3-fluorophenyl)prop-2-enamide] the value was 109%; for `C=CC(=O)N1CCOCC1c1ccnn1C` (stereo not drawn) [3-I19, 1-[3-(1-methyl-1H-pyrazol-5-yl)morpholin-4-yl]prop-2-en-1-one], 49.7%; for `CC(Cl)C(=O)Nc1cccc(Cl)c1` (stereo not drawn) [5-H22, 2-chloro-N-(3-chlorophenyl)propanamide], 78%.

In the case of `Cc1coc(C)c1C(=O)CCl` [10-M11, 2-chloro-1-(2,4-dimethylfuran-3-yl)ethan-1-one], the viability at 48 h, 25 µM was 72.9%.

Take `C=CC(=O)N1CC[C@H](Oc2ccccc2)C1` [3-I18, 1-[(3S)-3-phenoxypyrrolidin-1-yl]prop-2-en-1-one]: the viability at 48 h, 25 µM worked out at 103%. For `C=CCNC(=O)C(C#N)=CC=Cc1ccccc1` [9-J08, 2-cyano-5-phenyl-N-(prop-2-en-1-yl)penta-2,4-dienamide] the value was 96.5%.

For `Cc1ccc(Sc2ccc(NC(=O)CCl)cc2)cc1C` [4-G03, 2-chloro-N-{4-[(3,4-dimethylphenyl)sulfanyl]phenyl}acetamide], the viability at 48 h, 25 µM was -0.101%. Regarding `COc1cc(C=C(C#N)C(=O)Nc2ccc(F)cc2)cc(Cl)c1O` [8-H07, 3-(3-chloro-4-hydroxy-5-methoxyphenyl)-2-cyano-N-(4-fluorophenyl)prop-2-enamide], the viability at 48 h, 25 µM came out at 87.7%. For `O=C(CCl)Cc1c(F)cccc1F` [10-O15, 1-chloro-3-(2,6-difluorophenyl)propan-2-one] the value was 95.8%. For `N#CC(=CC=Cc1ccccc1)C(=O)Nc1ccc(F)c(Cl)c1` [8-O18, N-(3-chloro-4-fluorophenyl)-2-cyano-5-phenylpenta-2,4-dienamide] the value was 76.2%.

In the case of `C=CC(=O)Nc1ccc2c(c1)S(=O)(=O)CC2` [3-O15, N-(1,1-dioxo-2,3-dihydro-1lambda6-benzothiophen-6-yl)prop-2-enamide], the viability at 48 h, 25 µM amounted to 63.9%. For `C=CC(=O)N(C)Cc1cncn1C` [2-D09, N-methyl-N-[(1-methyl-1H-imidazol-5-yl)methyl]prop-2-enamide] the value was 61.2%. For `CC1CN(CCCNC(=O)CCl)CC(C)O1` (stereo not drawn) [6-G11, 2-chloro-N-[3-(2,6-dimethylmorpholin-4-yl)propyl]acetamide hydrochloride] the value was 116%. For `O=C(CCl)Nc1ccc(F)cc1[N+](=O)[O-]` [4-I07, 2-chloro-N-(4-fluoro-2-nitrophenyl)acetamide], the viability at 48 h, 25 µM was 0.642%. As for `O=C1C=CC(=O)N1c1ccc(OC(F)(F)F)cc1` [10-J19, 1-[4-(trifluoromethoxy)phenyl]-2,5-dihydro-1H-pyrrole-2,5-dione], the figure is 85.4%. For `Cc1csc(CN(CC2CCCO2)C(=O)C(C)Cl)n1` (stereo not drawn) [7-E09, 2-chloro-N-[(4-methyl-1,3-thiazol-2-yl)methyl]-N-[(oxolan-2-yl)methyl]propanamide] the value was 94.1%; for `CC(Cl)C(=O)N(C)C(C)c1cccc(NC(=O)c2ccccc2)c1` (stereo not drawn) [6-J14, N-{3-[1-(2-chloro-N-methylpropanamido)ethyl]phenyl}benzamide], 111%. As for `C=CC(=O)N1CCC(C(=O)NCc2cc(C)c[nH]c2=O)CC1` [3-H03, N-[(5-methyl-2-oxo-1,2-dihydropyridin-3-yl)methyl]-1-(prop-2-enoyl)piperidine-4-carboxamide], the figure is 81.3%. Consider `Cc1ccsc1CN(C(=O)CCl)C(C)C` [7-P03, 2-chloro-N-[(3-methylthiophen-2-yl)methyl]-N-(propan-2-yl)acetamide], for which the viability at 48 h, 25 µM was 0.159%.

On to `CC(Cl)C(=O)N1CCC(C(=O)c2cccs2)CC1` (stereo not drawn) [7-L13, 2-chloro-1-[4-(thiophene-2-carbonyl)piperidin-1-yl]propan-1-one], for which the viability at 48 h, 25 µM was found to be 86.7%. As for `N#CC1=C(N2CCOCC2)SC(c2cccc([N+](=O)[O-])c2)NC1=O` (stereo not drawn) [9-L19, 6-(morpholin-4-yl)-2-(3-nitrophenyl)-4-oxo-3,4-dihydro-2H-1,3-thiazine-5-carbonitrile], the figure is 129%; as for `O=C(CCl)Nc1ccccc1S(=O)(=O)C(F)F` [4-B18, 2-chloro-N-(2-difluoromethanesulfonylphenyl)acetamide], 38.2%. As for `CCN(C(=O)CCl)C1CCCCC1` [5-D11, 2-chloro-N-cyclohexyl-N-ethylacetamide], the figure is 0.918%. As for `O=C(CCl)NCC(c1nccs1)N1CCCC1` (stereo not drawn) [6-D11, 2-chloro-N-[2-(pyrrolidin-1-yl)-2-(1,3-thiazol-2-yl)ethyl]acetamide hydrochloride], the figure is 92.9%; as for `CC(Cl)C(=O)NCC(C)c1nncn1C` (stereo not drawn) [7-A07, 2-chloro-N-[2-(4-methyl-4H-1,2,4-triazol-3-yl)propyl]propanamide], 84.8%.

As for `C=CC(=O)N1CCC(n2cc(CO)nn2)C1` (stereo not drawn) [2-E08, 1-{3-[4-(hydroxymethyl)-1H-1,2,3-triazol-1-yl]pyrrolidin-1-yl}prop-2-en-1-one], the viability at 48 h, 25 µM was 81.8%.

With `O=C(CCl)NC(Cc1ccccc1)c1ccccc1F` (stereo not drawn) [7-N10, 2-chloro-N-[1-(2-fluorophenyl)-2-phenylethyl]acetamide], the viability at 48 h, 25 µM worked out at 0.701%. For `CC(Cl)C(=O)N1CCn2c(cc3c(Cl)cccc32)C1` (stereo not drawn) [7-D17, 2-chloro-1-{9-chloro-1H,2H,3H,4H-pyrazino[1,2-a]indol-2-yl}propan-1-one] the value was 55.6%. As for `O=C(CCl)NC1(c2nc(-c3ccccc3)c[nH]2)CCCC1` [7-J08, 2-chloro-N-[1-(4-phenyl-1H-imidazol-2-yl)cyclopentyl]acetamide hydrochloride], the figure is 0.673%; as for `C=CC(=O)Nc1cccc2ccccc12` [1-G10, N-(naphthalen-1-yl)prop-2-enamide], 53.4%; as for `N#CC(=Cc1sc2ccccc2c1Cl)C(=O)NC1CC1` [9-C18, 3-(3-chloro-1-benzothiophen-2-yl)-2-cyano-N-cyclopropylprop-2-enamide], 86.4%. For `CC(Cl)C(=O)NC1CCN(Cc2cscn2)CC1` (stereo not drawn) [7-D07, 2-chloro-N-{1-[(1,3-thiazol-4-yl)methyl]piperidin-4-yl}propanamide] the value was 111%; for `CCC(=O)N1CCc2cc(C(=O)CCl)ccc21` [10-C22, 1-[5-(2-chloroacetyl)-2,3-dihydro-1H-indol-1-yl]propan-1-one], 90.5%. As for `CC(Cl)C(=O)Nc1cccc(Cl)c1Cl` (stereo not drawn) [4-L13, 2-chloro-N-(2,3-dichlorophenyl)propanamide], the viability at 48 h, 25 µM amounted to 81.1%. As for `CC(Cl)C(=O)N1CCC(c2nccn2C)C1` (stereo not drawn) [6-F15, 2-chloro-1-[3-(1-methyl-1H-imidazol-2-yl)pyrrolidin-1-yl]propan-1-one], the figure is 98.6%; as for `N#CC(=Cc1cccc(O)c1)C(=O)Nc1ccccc1C(=O)O` [9-O16, 2-[2-cyano-3-(3-hydroxyphenyl)prop-2-enamido]benzoic acid], 125%; as for `C=CC(=O)N1CCN(CC(=O)NC)CC1` [1-F03, N-methyl-2-[4-(prop-2-enoyl)piperazin-1-yl]acetamide], 158%. For `C=CC(=O)NCCc1coc(-c2ccc(C)cc2)n1` [1-M06, N-{2-[2-(4-methylphenyl)-1,3-oxazol-4-yl]ethyl}prop-2-enamide] the value was 68.3%; for `Cc1ccc(Oc2ccc(NC(=O)CCl)cc2)cc1` [4-K03, 2-chloro-N-[4-(4-methylphenoxy)phenyl]acetamide], 0.0354%; for `CC(Cl)C(=O)N[C@@H]1CCc2c(C#N)cccc21` (stereo partly drawn) [6-P14, 2-chloro-N-[(1R)-4-cyano-2,3-dihydro-1H-inden-1-yl]propanamide], 114%. `O=C(CCl)NCCCc1ccccc1` [4-N04, 2-chloro-N-(3-phenylpropyl)acetamide]: the viability at 48 h, 25 µM was 50.6%.

As to `O=C(O)C1CCN(C(=O)CCl)CC1` [6-O11, 1-(2-chloroacetyl)piperidine-4-carboxylic acid], the viability at 48 h, 25 µM amounted to 113%. Take `C=CC(=O)N(CCO)c1ccc(C(=O)O)cc1` [1-M10, 4-[N-(2-hydroxyethyl)prop-2-enamido]benzoic acid]: the viability at 48 h, 25 µM was 96.4%. Take `C=CC(=O)N(Cc1ccc(=O)n(C)c1)C1CCCc2ccccc21` (stereo not drawn) [1-B17, N-[(1-methyl-6-oxo-1,6-dihydropyridin-3-yl)methyl]-N-(1,2,3,4-tetrahydronaphthalen-1-yl)prop-2-enamide]: the viability at 48 h, 25 µM was determined as 112%. As for `COc1ccc([N+](=O)[O-])cc1N1C(=O)C=CC1=O` [10-P13, 1-(2-methoxy-5-nitrophenyl)-2,5-dihydro-1H-pyrrole-2,5-dione], the figure is 102%; as for `Cc1ccc(C)c(C=C(C#N)C(=O)NC(C)C)c1` [9-O22, 2-cyano-3-(2,5-dimethylphenyl)-N-(propan-2-yl)prop-2-enamide], 125%; as for `COc1cc(C)c(C(C)NC(=O)CCl)cc1OC` (stereo not drawn) [6-M09, 2-chloro-N-[1-(4,5-dimethoxy-2-methylphenyl)ethyl]acetamide], 3.89%. As for `C=CCNC(=O)C(C#N)=Cc1cccc(C)c1` [8-D05, 2-cyano-3-(3-methylphenyl)-N-(prop-2-en-1-yl)prop-2-enamide], the figure is 102%; as for `O=C(CCl)c1cscn1` [10-L08, 2-chloro-1-(1,3-thiazol-4-yl)ethan-1-one], 59.2%.
